From the supplement of paper PMC11208160

Assay: recombinant UMI read abundance after kanamycin selection (control-corrected) (log10(CPM+1)); higher = more efficient recombination; extreme values may be limits of the assay; sequences stand for … in AGTGCAGAGAAAATCGGCCAGTTTTCTCTGCCTGCAGTCCGCATGCCGTGGGACCCCTTGGGTTCTAACCTGTTGCCTAGATTTATGCAGCGGACTGCCTTTCTCCCAAAGTGATAAACCGG…AGGTTGGTTTCACT; site = the 11-nt donor
Outline: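 For the IS621 bridge recombinase, a pooled Escherichia coli screen tested donor and donor-binding-loop pairs. Cells received the pair library together with a target plasmid encoding a fixed target and T7-inducible recombinase, then went onto IPTG (0.07 mM) plus kanamycin or unselected plates in duplicate. After PCR across the donor–target junction and sequencing, recombinant UMI counts were normalized to CPM, averaged, and scaled by control-derived factors. Each value is given as log10(CPM+1).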
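Further: IS621 bridge recombinase in Escherichia coli cells against a fixed T5 target plasmid.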

| Sequence | recombinant UMI read abundance (log10) |
| --- | --- |
| ATCCGAGCATGGACCGGTTTTCCCGGTAATCCGTATTTGAG (site ATCCCAGCTCT) | 0.172 |
| ATCCGAGCATGGACCGGTTTTCCCGGTAATCCGTATTTGAG (site ATCCGAGCTCT) | 0.924 |
| ATCCGAGCATGGACCGGTTTTCCCGGTAATCCGTATTTGAG (site ATCCTAGCTCT) | 0.0162 |
| ATCCGATCATGGACCGGTTTTCCCGGTAATCCGTATTTGGT (site ATCCGATCTAC) | 0.721 |
| ATCCTATCATGGACCGGTTTTCCCGGTAATCCGTATTTGAC (site ATCCTATCTGT) | 1.58 |
| ATCCTGGCATGGACCGGTTTTCCCGGTAATCCGTATTTGAC (site ATCCTGGCTGT) | 0 |
| ATCGATACATGGACCGGTTTTCCCGGTAATCCGTATTTGAC (site ATCAATACTGT) | 1.49 |
| ATCGATACATGGACCGGTTTTCCCGGTAATCCGTATTTGAC (site ATCCATACTGT) | 0 |
| ATCGATACATGGACCGGTTTTCCCGGTAATCCGTATTTGAC (site ATCGATACTGT) | 2.32 |
| ATCGATACATGGACCGGTTTTCCCGGTAATCCGTATTTGAC (site ATCTATACTGT) | 0.652 |
| ATCGTCACATGGACCGGTTTTCCCGGTAATCCGTATTTGCA (site ATCGTCACTTG) | 2.56 |
| ATCGTTCCATGGACCGGTTTTCCCGGTAATCCGTATTTGTT (site ATCGTTCCTAA) | 0.568 |
| ATCTAATCATGGACCGGTTTTCCCGGTAATCCGTATTTGGA (site ATCTAATCTTC) | 2.05 |
| ATCTACACATGGACCGGTTTTCCCGGTAATCCGTATTTGCT (site ATCTACACTAG) | 2.26 |
| ATCTACACATGGACCGGTTTTCCCGGTAATCCGTATTTGCT (site CTCTACACTAG) | 1.56 |
| ATCTACACATGGACCGGTTTTCCCGGTAATCCGTATTTGCT (site GTCTACACTAG) | 1.41 |
| ATCTACACATGGACCGGTTTTCCCGGTAATCCGTATTTGCT (site TTCTACACTAG) | 2.05 |
| ATCTAGACATGGACCGGTTTTCCCGGTAATCCGTATTTGAC (site ATCTAAACTGT) | 2.21 |
| ATCTAGACATGGACCGGTTTTCCCGGTAATCCGTATTTGAC (site ATCTACACTGT) | 0 |
| ATCTAGACATGGACCGGTTTTCCCGGTAATCCGTATTTGAC (site ATCTAGACTGT) | 2.68 |
| ATCTAGACATGGACCGGTTTTCCCGGTAATCCGTATTTGAC (site ATCTATACTGT) | 0 |
| ATCTATCCATGGACCGGTTTTCCCGGTAATCCGTATTTGAC (site ATCTATACTGT) | 0 |
| ATCTATCCATGGACCGGTTTTCCCGGTAATCCGTATTTGAC (site ATCTATCCTGT) | 0.991 |
| ATCTATCCATGGACCGGTTTTCCCGGTAATCCGTATTTGAC (site ATCTATGCTGT) | 0 |
| ATCTATCCATGGACCGGTTTTCCCGGTAATCCGTATTTGAC (site ATCTATTCTGT) | 0 |
| ATCTATTCATGGACCGGTTTTCCCGGTAATCCGTATTTGAC (site ATCTATACTGT) | 0.00799 |

| Sequence | recombinant UMI read abundance (log10) |
| --- | --- |
| ATCTATTCATGGACCGGTTTTCCCGGTAATCCGTATTTGAC (site ATCTATCCTGT) | 1.89 |
| ATCTATTCATGGACCGGTTTTCCCGGTAATCCGTATTTGAC (site ATCTATGCTGT) | 0 |
| ATCTATTCATGGACCGGTTTTCCCGGTAATCCGTATTTGAC (site ATCTATTCTGT) | 1.51 |
| ATGAAGGCATGGACCGGTTTTCCCGGTAATCCGTATTTGGC (site ATGAAGGCTGC) | 2.32 |
| ATGAAGGCATGGACCGGTTTTCCCGGTAATCCGTATTTGGC (site ATGCAGGCTGC) | 1.72 |
| ATGAAGGCATGGACCGGTTTTCCCGGTAATCCGTATTTGGC (site ATGGAGGCTGC) | 2.09 |
| ATGAAGGCATGGACCGGTTTTCCCGGTAATCCGTATTTGGC (site ATGTAGGCTGC) | 2.08 |
| ATGACGACATGGACCGGTTTTCCCGGTAATCCGTATTTGCA (site AGGAAGACTTG) | 0 |
| ATGACGACATGGACCGGTTTTCCCGGTAATCCGTATTTGCA (site ATGACGACTTG) | 1.81 |
| ATGACTACATGGACCGGTTTTCCCGGTAATCCGTATTTGAC (site AAGACTACTGT) | 0.508 |
| ATGACTACATGGACCGGTTTTCCCGGTAATCCGTATTTGAC (site ACGACTACTGT) | 1.92 |
| ATGACTACATGGACCGGTTTTCCCGGTAATCCGTATTTGAC (site AGGACTACTGT) | 0.907 |
| ATGACTACATGGACCGGTTTTCCCGGTAATCCGTATTTGAC (site ATGACTACTGT) | 2.54 |
| ATGACTGCATGGACCGGTTTTCCCGGTAATCCGTATTTGTC (site ATGACTGCTGA) | 1.47 |
| ATGAGCACATGGACCGGTTTTCCCGGTAATCCGTATTTGGA (site ATGAGCACTTC) | 0.82 |
| ATGAGGCCATGGACCGGTTTTCCCGGTAATCCGTATTTGAC (site ATAAGGCCTGT) | 0 |
| ATGAGGCCATGGACCGGTTTTCCCGGTAATCCGTATTTGAC (site ATCAGGCCTGT) | 0 |
| ATGAGGCCATGGACCGGTTTTCCCGGTAATCCGTATTTGAC (site ATGAGGCCTGT) | 0.716 |
| ATGAGGCCATGGACCGGTTTTCCCGGTAATCCGTATTTGAC (site ATTAGGCCTGT) | 0 |
| ATGATGGCATGGACCGGTTTTCCCGGTAATCCGTATTTGAC (site ATGATGGCTGT) | 2.7 |
| ATGCAGGCATGGACCGGTTTTCCCGGTAATCCGTATTTGGC (site ATGAAGGCTGC) | 0 |
| ATGCAGGCATGGACCGGTTTTCCCGGTAATCCGTATTTGGC (site ATGCAGGCTGC) | 2.77 |
| ATGCAGGCATGGACCGGTTTTCCCGGTAATCCGTATTTGGC (site ATGGAGGCTGC) | 0 |
| ATGCAGGCATGGACCGGTTTTCCCGGTAATCCGTATTTGGC (site ATGTAGGCTGC) | 0.922 |
| ATGCCACCATGGACCGGTTTTCCCGGTAATCCGTATTTGTA (site ATGCCACCTTA) | 0 |
| ATGCTGACATGGACCGGTTTTCCCGGTAATCCGTATTTGGT (site ATGCTGACTAC) | 1.32 |
